The results in this text go back to patent US8258099B2, “Pin1-modulating compounds and methods of use thereof” (Max-Planck-Gesellschaft zur Foerderung der Wissenschaften …, priority 2004, dated 2012).

A short description of the series: Stability against cellular phosphatases and proteases in HeLa cell lysate. It counts as in vitro ADME. The method, then:
FIG. 4 depicts the stability of peptide 17 against cellular phosphatases and proteases. Peptide 17 was incubated for 3 hours in HeLa cell lysate in the absence of phosphatase and protease inhibitors. The mixture was then analyzed by capillary electrophoresis (short dashed line). As controls, the untreated peptide 17 (solid line) and its nonphosphorylated derivative (dotted line) were used. The temperature of the capillary thermostating system was kept at 16° C. Separation buffer was 50 mM sodium phosphate, pH 7.0. Signals were detected at 220 nm.
Peptide 17 was incubated with HeLa cell lysate for 3 h and analyzed with capillary electrophoresis using UV detection at 220 nm on a P/ACE MDQ (Beckman Coulter, Palo Alto, Calif.) system. Fused-silica capillaries (Polymicro Technologies) of 40 cm length at an operation voltage of 20 kV were used. As references, untreated peptide 17 and its nonphosphorylated derivative were used. The samples were hydrodynamically injected with 3.45 kPa for 10 s. 50 mM sodium phosphate buffer (pH 7.0) was used as separation buffer. The system temperature was kept at 16° C.
The stability of peptides 15 and 17 in cytoplasmic extracts from HeLa cells was investigated using MALDI-TOF mass spectrometry and capillary electrophoresis, respectively. In the cytosolic incubation mixture, streptavidin sepharose beads served to isolate peptide 15 fragments after prolonged incubation. […] Therefore, phosphopeptides are useless for evaluating Pin1 functions in vivo unless dephosphorylation can be avoided.

Square brackets hold non-standard residues; d marks the D form. Peptide text beside a SMILES is read from it. d(pT) = C[C@H](OP(=O)(O)O)[C@@H](N)C(=O)O; 2Nal = N[C@@H](Cc1ccc2ccccc2c1)C(=O)O; Pip = O=C(O)[C@@H]1CCCCN1

On to `CC(=O)N[C@@H](Cc1ccccc1)C(=O)N[C@@H](C(=O)N1CCCC[C@H]1C(=O)N[C@@H](Cc1ccc2ccccc2c1)C(=O)N[C@@H](CCC(N)=O)C(N)=O)[C@H](C)OP(=O)(O)O` [Peptide 17, Ac-Phe-D-Thr(PO3H2)-Pip-Nal-Gln-NH2] (Ac-F[d(pT)][Pip][2Nal]Q-NH2), for which, for the setting “3 hours of incubation, no phosphatase and protease inhibitors, capillary electrophoresis”, the “stability against HeLa cell lysate” value is on record as “complete stability”. Also, the stability in cytosol result (discussion statement (FIG. 4)) is reported as “sufficiently stable”.
